Measurements from ChEMBL document CHEMBL1201862, “PubChem BioAssay data set” (2004).
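Grown in 96-well plates, cells were treated for 48 hours with each compound at five concentrations. Insufficient inhibition: endpoint recorded as highest concentration tested. GI50 marks 50% less growth.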 Calls of active or inactive are those of the source. No stated cut-off is given here; in the data, active = GI50 up to about 1.1 µM and inactive = higher.

Assays:
Experiment in all cases: NCI anticancer screen, dose series, 48 h
[1] = system: A498
[2] = system: BT-549
[3] = system: EKVX
[4] = system: HCT-15
[5] = system: HOP-62
[6] = system: HOP-92
[7] = system: M14
[8] = system: MCF7
[9] = system: NCI-H226
[10] = system: OVCAR-4
[11] = system: PC-3
[12] = system: RPMI-8226
[13] = system: RXF 393
[14] = system: SK-OV-3
[15] = system: TK-10
[16] = system: UACC-62
[17] = system: 786-0
[18] = system: Hs-578T
[19] = system: Malme-3M

Compound	GI50 [1]	GI50 [2]	GI50 [3]	GI50 [4]	GI50 [5]	GI50 [6]	GI50 [7]	GI50 [8]	GI50 [9]	GI50 [10]	GI50 [11]	GI50 [12]	GI50 [13]	GI50 [14]	GI50 [15]	GI50 [16]	GI50 [17]	GI50 [18]	GI50 [19]
CN(C)CCCn1c(-c2ccc(Br)cc2)cs/c1=N\c1ccccc1	8.75 µM (inactive)	15.4 µM (inactive)	10.8 µM (inactive)	21.1 µM	12.9 µM (inactive)	15.2 µM (inactive)	12.6 µM (inactive)	16 µM (inactive)	13.2 µM (inactive)	16.1 µM (inactive)	11.2 µM (inactive)	12.6 µM (inactive)	12.9 µM (inactive)	18.3 µM (inactive)	15.9 µM (inactive)	13.7 µM (inactive)	–	–	–
O=C1OCC=C1COC1OC(CO)C(O)C(O)C1O (stereo unspecified)	> 100 µM (inactive)	–	> 100 µM (inactive)	> 100 µM	> 100 µM (inactive)	> 100 µM (inactive)	> 100 µM (inactive)	> 100 µM (inactive)	> 100 µM (inactive)	> 100 µM (inactive)	> 100 µM (inactive)	> 100 µM (inactive)	> 100 µM (inactive)	> 100 µM (inactive)	> 100 µM (inactive)	–	> 100 µM (inactive)	> 100 µM (inactive)	> 100 µM (inactive)
CCOC(=O)C1(C(=O)OCC)CC(=O)[C@@]2(C1)OCC[C@H]1OC(=O)C[C@H]12	> 100 µM (inactive)	> 100 µM (inactive)	> 100 µM (inactive)	> 100 µM	> 100 µM (inactive)	> 100 µM (inactive)	> 100 µM (inactive)	> 100 µM (inactive)	–	> 100 µM (inactive)	> 100 µM (inactive)	> 100 µM (inactive)	–	–	> 100 µM (inactive)	> 100 µM (inactive)	> 100 µM (inactive)	> 100 µM (inactive)	> 100 µM (inactive)
CCOC(O)C(F)(F)F (stereo unspecified)	–	–	–	> 100 µM	–	> 100 µM (inactive)	> 100 µM (inactive)	> 100 µM (inactive)	> 100 µM (inactive)	–	> 100 µM (inactive)	–	> 100 µM (inactive)	> 100 µM (inactive)	> 100 µM (inactive)	–	–	> 100 µM (inactive)	–
Cn1c(=O)n2n(c1=O)C(C)(C13CC4CC(CC(C4)C1)C3)C13CC4CC(CC1C4)CC23 (stereo unspecified)	> 100 µM (inactive)	> 100 µM (inactive)	> 100 µM (inactive)	> 100 µM	> 100 µM (inactive)	> 100 µM (inactive)	> 100 µM (inactive)	> 100 µM (inactive)	> 100 µM (inactive)	–	> 100 µM (inactive)	> 100 µM (inactive)	–	> 100 µM (inactive)	> 100 µM (inactive)	> 100 µM (inactive)	–	> 100 µM (inactive)	–
CCOC(=O)c1csc(NC(=O)CN2CCCC2)n1	> 100 µM (inactive)	–	> 100 µM (inactive)	> 100 µM	> 100 µM (inactive)	> 100 µM (inactive)	> 100 µM (inactive)	> 100 µM (inactive)	> 100 µM (inactive)	> 100 µM (inactive)	> 100 µM (inactive)	> 100 µM (inactive)	> 100 µM (inactive)	> 100 µM (inactive)	> 100 µM (inactive)	> 100 µM (inactive)	–	> 100 µM (inactive)	–
O=C1c2cc3c(cc2CC12Cc1ccc4c(c1C2=O)CCC4)CCCC3 (stereo unspecified)	> 100 µM (inactive)	–	> 100 µM (inactive)	> 100 µM	> 100 µM (inactive)	> 100 µM (inactive)	> 100 µM (inactive)	> 100 µM (inactive)	–	> 100 µM (inactive)	> 100 µM (inactive)	> 100 µM (inactive)	> 100 µM (inactive)	> 100 µM (inactive)	> 100 µM (inactive)	–	> 100 µM (inactive)	> 100 µM (inactive)	60 µM (inactive)
COC12OC3(C4OC41)C(C(=O)O[C@H]3CO[Si](C)(C)C(C)(C)C)C2C(=O)Oc1ccccc1 (stereo partly specified)	> 100 µM (inactive)	0.991 µM (active)	> 100 µM (inactive)	> 100 µM	> 100 µM (inactive)	> 100 µM (inactive)	> 100 µM (inactive)	> 100 µM (inactive)	> 100 µM (inactive)	> 100 µM (inactive)	> 100 µM (inactive)	91 µM (inactive)	–	> 100 µM (inactive)	> 100 µM (inactive)	> 100 µM (inactive)	> 100 µM (inactive)	> 100 µM (inactive)	92 µM (inactive)
Cc1nc(N(CCO)CCO)c2sc(=S)n(-c3ccccc3)c2n1	> 100 µM (inactive)	–	–	–	> 100 µM (inactive)	> 100 µM (inactive)	–	–	> 100 µM (inactive)	–	–	> 100 µM (inactive)	–	> 100 µM (inactive)	> 100 µM (inactive)	> 100 µM (inactive)	–	–	> 100 µM (inactive)
CCOC(=O)c1csc(NC(=O)CCN2CCN(C)CC2)n1	> 100 µM (inactive)	–	–	> 100 µM	> 100 µM (inactive)	> 100 µM (inactive)	> 100 µM (inactive)	89.3 µM (inactive)	> 100 µM (inactive)	> 100 µM (inactive)	> 100 µM (inactive)	55.3 µM (inactive)	> 100 µM (inactive)	> 100 µM (inactive)	> 100 µM (inactive)	> 100 µM (inactive)	–	64.6 µM (inactive)	–
Cc1ccc(S(=O)(=O)NCCCSCCN)cc1	4.99 µM (inactive)	–	–	> 100 µM	–	> 100 µM (inactive)	> 100 µM (inactive)	> 100 µM (inactive)	> 100 µM (inactive)	> 100 µM (inactive)	> 100 µM (inactive)	–	> 100 µM (inactive)	> 100 µM (inactive)	> 100 µM (inactive)	–	–	> 100 µM (inactive)	–
O=C1C2c3[nH]c4ccccc4c3C3CCSCC3C2C(=O)N1c1ccccc1 (stereo unspecified)	> 100 µM (inactive)	–	> 100 µM (inactive)	> 100 µM	> 100 µM (inactive)	> 100 µM (inactive)	> 100 µM (inactive)	–	> 100 µM (inactive)	> 100 µM (inactive)	–	> 100 µM (inactive)	25.8 µM (inactive)	> 100 µM (inactive)	> 100 µM (inactive)	> 100 µM (inactive)	> 100 µM (inactive)	–	> 100 µM (inactive)
CCCC(=O)Nc1cc2c3c(c1)CCCN3CCC2	–	> 10 µM (inactive)	–	> 10 µM	> 10 µM (inactive)	> 10 µM (inactive)	> 10 µM (inactive)	6.08 µM (inactive)	–	> 10 µM (inactive)	> 10 µM (inactive)	> 10 µM (inactive)	–	9.66 µM (inactive)	> 10 µM (inactive)	> 10 µM (inactive)	> 10 µM (inactive)	> 10 µM (inactive)	> 10 µM (inactive)
COc1ccc(C2C3CCc4ccccc4C3=NN2S(=O)(=O)c2cccc(C(=O)O)c2OC)cc1 (stereo unspecified)	–	33.3 µM (inactive)	15 µM (inactive)	0.24 µM	21 µM (inactive)	15.7 µM (inactive)	15.8 µM (inactive)	2.19 µM (inactive)	19.8 µM (inactive)	19.4 µM (inactive)	9.02 µM (inactive)	9.55 µM (inactive)	13.1 µM (inactive)	1.8 µM (inactive)	22.9 µM (inactive)	6.14 µM (inactive)	11.2 µM (inactive)	–	13.3 µM (inactive)
COc1ccc(C(=O)/C=C/c2ccc(OCCCOc3ccc(/C=C/C(=O)c4ccc(OC)cc4)cc3)cc2)cc1	–	–	> 100 µM (inactive)	> 100 µM	> 100 µM (inactive)	–	> 100 µM (inactive)	> 100 µM (inactive)	> 100 µM (inactive)	60.7 µM (inactive)	> 100 µM (inactive)	21.8 µM (inactive)	> 100 µM (inactive)	> 100 µM (inactive)	> 100 µM (inactive)	> 100 µM (inactive)	> 100 µM (inactive)	> 100 µM (inactive)	–
N#Cc1c(-c2ccccc2)c(CN2CCCCC2)c(=O)n2c1[nH]c1ccccc12	30.4 µM (inactive)	35 µM (inactive)	–	32.6 µM	20.7 µM (inactive)	–	30.1 µM (inactive)	13.2 µM (inactive)	> 100 µM (inactive)	46.3 µM (inactive)	34.9 µM (inactive)	–	32.5 µM (inactive)	71 µM (inactive)	28.4 µM (inactive)	–	27.9 µM (inactive)	–	62.2 µM (inactive)
CN(C)c1cccc2c1C(=O)C=CC21CCc2ccc(N(C)C)c3c(N(C)C)ccc1c23 (stereo unspecified)	4.47 µM (inactive)	–	20 µM (inactive)	–	14.5 µM (inactive)	12.3 µM (inactive)	14.2 µM (inactive)	11.7 µM (inactive)	17.1 µM (inactive)	14.8 µM (inactive)	11.6 µM (inactive)	16.9 µM (inactive)	7.38 µM (inactive)	10.1 µM (inactive)	14.6 µM (inactive)	12.9 µM (inactive)	12.7 µM (inactive)	17.4 µM (inactive)	11.5 µM (inactive)
CC(C)NC(=O)OCc1nnn2c1CCC2	–	–	> 100 µM (inactive)	> 100 µM	> 100 µM (inactive)	74 µM (inactive)	> 100 µM (inactive)	–	–	> 100 µM (inactive)	–	–	> 100 µM (inactive)	> 100 µM (inactive)	> 100 µM (inactive)	> 100 µM (inactive)	–	–	> 100 µM (inactive)
CN1CCc2c([nH]c3ccccc23)C1	–	> 100 µM (inactive)	> 100 µM (inactive)	> 100 µM	> 100 µM (inactive)	–	> 100 µM (inactive)	> 100 µM (inactive)	> 100 µM (inactive)	> 100 µM (inactive)	> 100 µM (inactive)	> 100 µM (inactive)	> 100 µM (inactive)	> 100 µM (inactive)	> 100 µM (inactive)	> 100 µM (inactive)	> 100 µM (inactive)	> 100 µM (inactive)	29.4 µM (inactive)
